In US20110136666A1, “CHEMICAL COMPOUNDS” (SYNGENTA CROP PROTECTION, INC., priority 2008, published 2011):

test system: Alopecurus myosuroides (ALOMY); assay: Pre-emergence biological efficacy, glasshouse pot test; assay type: in vivo; conditions: 312 h, 1000 g/ha, after 13 days, 100=total damage, 0=no damage, read-out: Percentage damage caused to weed species ALOMY
Procedure: (§1) Seeds of Alopecurus myosuroides (ALOMY), Setaria faberi (SETFA), Echinochloa crus-galli (ECHCG), Solanum nigrum (SOLNI), Amaranthus retroflexus (AMARE) and Ipomea hederaceae (IPOHE) were sown in standard soil in pots. After cultivation for one day under controlled conditions in a glasshouse (at 24/16° C., day/night; 14 hours light; 65% humidity), the plants were sprayed with an aqueous spray solution derived from the formulation of the technical active ingredient in acetone/water (50:50) solution containing 0.5% Tween 20 (polyoxyethylene sorbitan monolaurate, CAS RN 9005-64-5) to give a final dose of 250 or 1000 g/ha of test compound.
(§2) The test plants were then grown under controlled conditions in the glasshouse (at 24/16° C., day/night; 14 hours light; 65% humidity) and watered twice daily. After 13 days the test was evaluated (100=total damage to plant; 0=no damage to plant).

Structure (SMILES)	pest or weed control at 1000 g/ha [%]
COC(=O)c1nc(-c2csc3ccc(C)cc23)nc(N)c1Cl [Compound 2-57, 4-amino-5-chloro-6-methoxycarbonyl-2-(5-methylbenz-[b]thiophen-3-yl)-pyrimidine]	0
COC(=O)c1nc(-c2cccnc2)nc(N)c1Cl [Compound 2-153, 4-Amino-5-chloro-6-methoxycarbonyl-2-pyridin-3-ylpyrimidine]	0
COC(=O)c1nc(-c2cccnc2OC)nc(N)c1Cl [Compound 2-154, 4-Amino-5-chloro-6-methoxycarbonyl-2-(2-methoxypyridin-3-yl)-pyrimidine]	0
COC(=O)c1nc(-c2ccc(OC)nc2)nc(N)c1Cl [Compound 2-155, 4-Amino-5-chloro-6-methoxycarbonyl-2-(2-methoxypyridin-5-yl)-pyrimidine]	0
COC(=O)c1nc(-c2ccc(Cl)nc2)nc(N)c1Cl [Compound 2-156, 4-Amino-5-chloro-2-(2-chloropyridin-5-yl)-6-methoxycarbonyl pyrimidine]	0

test system: Amaranthus retroflexus (AMARE); assay: as above; assay type: in vivo; conditions: 312 h, 1000 g/ha, after 13 days, 100=total damage, 0=no damage, read-out: Percentage damage caused to weed species AMARE
Procedure: as §1, §2

Structure (SMILES)	pest or weed control at 1000 g/ha [%]
COC(=O)c1nc(-c2csc3ccc(C)cc23)nc(N)c1Cl [Compound 2-57, 4-amino-5-chloro-6-methoxycarbonyl-2-(5-methylbenz-[b]thiophen-3-yl)-pyrimidine]	0
COC(=O)c1nc(-c2cccnc2)nc(N)c1Cl [Compound 2-153, 4-Amino-5-chloro-6-methoxycarbonyl-2-pyridin-3-ylpyrimidine]	0
COC(=O)c1nc(-c2cccnc2OC)nc(N)c1Cl [Compound 2-154, 4-Amino-5-chloro-6-methoxycarbonyl-2-(2-methoxypyridin-3-yl)-pyrimidine]	0
COC(=O)c1nc(-c2ccc(OC)nc2)nc(N)c1Cl [Compound 2-155, 4-Amino-5-chloro-6-methoxycarbonyl-2-(2-methoxypyridin-5-yl)-pyrimidine]	20
COC(=O)c1nc(-c2ccc(Cl)nc2)nc(N)c1Cl [Compound 2-156, 4-Amino-5-chloro-2-(2-chloropyridin-5-yl)-6-methoxycarbonyl pyrimidine]	70

test system: Echinochloa crus-galli (ECHCG); assay: as above; assay type: in vivo; conditions: 312 h, 1000 g/ha, after 13 days, 100=total damage, 0=no damage, read-out: Percentage damage caused to weed species ECHCG
Procedure: as §1, §2

Structure (SMILES)	pest or weed control at 1000 g/ha [%]
COC(=O)c1nc(-c2csc3ccc(C)cc23)nc(N)c1Cl [Compound 2-57, 4-amino-5-chloro-6-methoxycarbonyl-2-(5-methylbenz-[b]thiophen-3-yl)-pyrimidine]	0
COC(=O)c1nc(-c2cccnc2)nc(N)c1Cl [Compound 2-153, 4-Amino-5-chloro-6-methoxycarbonyl-2-pyridin-3-ylpyrimidine]	0
COC(=O)c1nc(-c2cccnc2OC)nc(N)c1Cl [Compound 2-154, 4-Amino-5-chloro-6-methoxycarbonyl-2-(2-methoxypyridin-3-yl)-pyrimidine]	0
COC(=O)c1nc(-c2ccc(OC)nc2)nc(N)c1Cl [Compound 2-155, 4-Amino-5-chloro-6-methoxycarbonyl-2-(2-methoxypyridin-5-yl)-pyrimidine]	0
COC(=O)c1nc(-c2ccc(Cl)nc2)nc(N)c1Cl [Compound 2-156, 4-Amino-5-chloro-2-(2-chloropyridin-5-yl)-6-methoxycarbonyl pyrimidine]	0

test system: Ipomea hederaceae (IPOHE); assay: as above; assay type: in vivo; conditions: Ipomoea hederacea, 312 h, 1000 g/ha, after 13 days, 100=total damage, 0=no damage, read-out: Percentage damage caused to weed species IPOHE
Procedure: as §1, §2

Structure (SMILES)	pest or weed control at 1000 g/ha [%]
COC(=O)c1nc(-c2csc3ccc(C)cc23)nc(N)c1Cl [Compound 2-57, 4-amino-5-chloro-6-methoxycarbonyl-2-(5-methylbenz-[b]thiophen-3-yl)-pyrimidine]	0
COC(=O)c1nc(-c2cccnc2)nc(N)c1Cl [Compound 2-153, 4-Amino-5-chloro-6-methoxycarbonyl-2-pyridin-3-ylpyrimidine]	0
COC(=O)c1nc(-c2cccnc2OC)nc(N)c1Cl [Compound 2-154, 4-Amino-5-chloro-6-methoxycarbonyl-2-(2-methoxypyridin-3-yl)-pyrimidine]	0
COC(=O)c1nc(-c2ccc(OC)nc2)nc(N)c1Cl [Compound 2-155, 4-Amino-5-chloro-6-methoxycarbonyl-2-(2-methoxypyridin-5-yl)-pyrimidine]	0
COC(=O)c1nc(-c2ccc(Cl)nc2)nc(N)c1Cl [Compound 2-156, 4-Amino-5-chloro-2-(2-chloropyridin-5-yl)-6-methoxycarbonyl pyrimidine]	0

test system: Setaria faberi (SETFA); assay: as above; assay type: in vivo; conditions: 312 h, 1000 g/ha, after 13 days, 100=total damage, 0=no damage, read-out: Percentage damage caused to weed species SETFA
Procedure: as §1, §2

Structure (SMILES)	pest or weed control at 1000 g/ha [%]
COC(=O)c1nc(-c2csc3ccc(C)cc23)nc(N)c1Cl [Compound 2-57, 4-amino-5-chloro-6-methoxycarbonyl-2-(5-methylbenz-[b]thiophen-3-yl)-pyrimidine]	0
COC(=O)c1nc(-c2cccnc2)nc(N)c1Cl [Compound 2-153, 4-Amino-5-chloro-6-methoxycarbonyl-2-pyridin-3-ylpyrimidine]	0
COC(=O)c1nc(-c2cccnc2OC)nc(N)c1Cl [Compound 2-154, 4-Amino-5-chloro-6-methoxycarbonyl-2-(2-methoxypyridin-3-yl)-pyrimidine]	0
COC(=O)c1nc(-c2ccc(OC)nc2)nc(N)c1Cl [Compound 2-155, 4-Amino-5-chloro-6-methoxycarbonyl-2-(2-methoxypyridin-5-yl)-pyrimidine]	0
COC(=O)c1nc(-c2ccc(Cl)nc2)nc(N)c1Cl [Compound 2-156, 4-Amino-5-chloro-2-(2-chloropyridin-5-yl)-6-methoxycarbonyl pyrimidine]	0

test system: Solanum nigrum (SOLNI); assay: as above; assay type: in vivo; conditions: 312 h, 1000 g/ha, after 13 days, 100=total damage, 0=no damage, read-out: Percentage damage caused to weed species SOLNI
Procedure: as §1, §2

Structure (SMILES)	pest or weed control at 1000 g/ha [%]
COC(=O)c1nc(-c2csc3ccc(C)cc23)nc(N)c1Cl [Compound 2-57, 4-amino-5-chloro-6-methoxycarbonyl-2-(5-methylbenz-[b]thiophen-3-yl)-pyrimidine]	0
COC(=O)c1nc(-c2cccnc2)nc(N)c1Cl [Compound 2-153, 4-Amino-5-chloro-6-methoxycarbonyl-2-pyridin-3-ylpyrimidine]	0
COC(=O)c1nc(-c2cccnc2OC)nc(N)c1Cl [Compound 2-154, 4-Amino-5-chloro-6-methoxycarbonyl-2-(2-methoxypyridin-3-yl)-pyrimidine]	20
COC(=O)c1nc(-c2ccc(OC)nc2)nc(N)c1Cl [Compound 2-155, 4-Amino-5-chloro-6-methoxycarbonyl-2-(2-methoxypyridin-5-yl)-pyrimidine]	20
COC(=O)c1nc(-c2ccc(Cl)nc2)nc(N)c1Cl [Compound 2-156, 4-Amino-5-chloro-2-(2-chloropyridin-5-yl)-6-methoxycarbonyl pyrimidine]	60

test system: Alopecurus myosuroides (ALOMY); assay: Post-emergence biological efficacy, glasshouse pot test; assay type: in vivo; conditions: 312 h, 1000 g/ha, after 13 days, 100=total damage, 0=no damage, read-out: Percentage damage caused to weed species ALOMY
Procedure: as §1, with “8 days” for “one day”
(§3) The test plants were then grown on under controlled conditions in a glasshouse (at 24/16° C., day/night; 14 hours light; 65% humidity) and watered twice daily. After 13 days the test was evaluated (100=total damage to plant; 0=no damage to plant).

Structure (SMILES)	pest or weed control at 1000 g/ha [%]
COC(=O)c1nc(-c2csc3ccc(C)cc23)nc(N)c1Cl [Compound 2-57, 4-amino-5-chloro-6-methoxycarbonyl-2-(5-methylbenz-[b]thiophen-3-yl)-pyrimidine]	0
COC(=O)c1nc(-c2cccnc2)nc(N)c1Cl [Compound 2-153, 4-Amino-5-chloro-6-methoxycarbonyl-2-pyridin-3-ylpyrimidine]	0
COC(=O)c1nc(-c2cccnc2OC)nc(N)c1Cl [Compound 2-154, 4-Amino-5-chloro-6-methoxycarbonyl-2-(2-methoxypyridin-3-yl)-pyrimidine]	0
COC(=O)c1nc(-c2ccc(OC)nc2)nc(N)c1Cl [Compound 2-155, 4-Amino-5-chloro-6-methoxycarbonyl-2-(2-methoxypyridin-5-yl)-pyrimidine]	0
COC(=O)c1nc(-c2ccc(Cl)nc2)nc(N)c1Cl [Compound 2-156, 4-Amino-5-chloro-2-(2-chloropyridin-5-yl)-6-methoxycarbonyl pyrimidine]	40

test system: Amaranthus retroflexus (AMARE); assay: as above; assay type: in vivo; conditions: 312 h, 1000 g/ha, after 13 days, 100=total damage, 0=no damage, read-out: Percentage damage caused to weed species AMARE
Procedure: as §1, with “8 days” for “one day”
as §3

Structure (SMILES)	pest or weed control at 1000 g/ha [%]
COC(=O)c1nc(-c2csc3ccc(C)cc23)nc(N)c1Cl [Compound 2-57, 4-amino-5-chloro-6-methoxycarbonyl-2-(5-methylbenz-[b]thiophen-3-yl)-pyrimidine]	0
COC(=O)c1nc(-c2cccnc2)nc(N)c1Cl [Compound 2-153, 4-Amino-5-chloro-6-methoxycarbonyl-2-pyridin-3-ylpyrimidine]	0
COC(=O)c1nc(-c2cccnc2OC)nc(N)c1Cl [Compound 2-154, 4-Amino-5-chloro-6-methoxycarbonyl-2-(2-methoxypyridin-3-yl)-pyrimidine]	70
COC(=O)c1nc(-c2ccc(OC)nc2)nc(N)c1Cl [Compound 2-155, 4-Amino-5-chloro-6-methoxycarbonyl-2-(2-methoxypyridin-5-yl)-pyrimidine]	100
COC(=O)c1nc(-c2ccc(Cl)nc2)nc(N)c1Cl [Compound 2-156, 4-Amino-5-chloro-2-(2-chloropyridin-5-yl)-6-methoxycarbonyl pyrimidine]	100

test system: Echinochloa crus-galli (ECHCG); assay: as above; assay type: in vivo; conditions: 312 h, 1000 g/ha, after 13 days, 100=total damage, 0=no damage, read-out: Percentage damage caused to weed species ECHCG
Procedure: as §1, with “8 days” for “one day”
as §3

Structure (SMILES)	pest or weed control at 1000 g/ha [%]
COC(=O)c1nc(-c2csc3ccc(C)cc23)nc(N)c1Cl [Compound 2-57, 4-amino-5-chloro-6-methoxycarbonyl-2-(5-methylbenz-[b]thiophen-3-yl)-pyrimidine]	0
COC(=O)c1nc(-c2cccnc2)nc(N)c1Cl [Compound 2-153, 4-Amino-5-chloro-6-methoxycarbonyl-2-pyridin-3-ylpyrimidine]	0
COC(=O)c1nc(-c2cccnc2OC)nc(N)c1Cl [Compound 2-154, 4-Amino-5-chloro-6-methoxycarbonyl-2-(2-methoxypyridin-3-yl)-pyrimidine]	0
COC(=O)c1nc(-c2ccc(OC)nc2)nc(N)c1Cl [Compound 2-155, 4-Amino-5-chloro-6-methoxycarbonyl-2-(2-methoxypyridin-5-yl)-pyrimidine]	80
COC(=O)c1nc(-c2ccc(Cl)nc2)nc(N)c1Cl [Compound 2-156, 4-Amino-5-chloro-2-(2-chloropyridin-5-yl)-6-methoxycarbonyl pyrimidine]	30

test system: Ipomea hederaceae (IPOHE); assay: as above; assay type: in vivo; conditions: Ipomoea hederacea, 312 h, 1000 g/ha, after 13 days, 100=total damage, 0=no damage, read-out: Percentage damage caused to weed species IPONE
Procedure: as §1, with “8 days” for “one day”
as §3

Structure (SMILES)	pest or weed control at 1000 g/ha [%]
COC(=O)c1nc(-c2csc3ccc(C)cc23)nc(N)c1Cl [Compound 2-57, 4-amino-5-chloro-6-methoxycarbonyl-2-(5-methylbenz-[b]thiophen-3-yl)-pyrimidine]	20
COC(=O)c1nc(-c2cccnc2)nc(N)c1Cl [Compound 2-153, 4-Amino-5-chloro-6-methoxycarbonyl-2-pyridin-3-ylpyrimidine]	0
COC(=O)c1nc(-c2cccnc2OC)nc(N)c1Cl [Compound 2-154, 4-Amino-5-chloro-6-methoxycarbonyl-2-(2-methoxypyridin-3-yl)-pyrimidine]	20
COC(=O)c1nc(-c2ccc(OC)nc2)nc(N)c1Cl [Compound 2-155, 4-Amino-5-chloro-6-methoxycarbonyl-2-(2-methoxypyridin-5-yl)-pyrimidine]	70
COC(=O)c1nc(-c2ccc(Cl)nc2)nc(N)c1Cl [Compound 2-156, 4-Amino-5-chloro-2-(2-chloropyridin-5-yl)-6-methoxycarbonyl pyrimidine]	70

test system: Setaria faberi (SETFA); assay: as above; assay type: in vivo; conditions: 312 h, 1000 g/ha, after 13 days, 100=total damage, 0=no damage, read-out: Percentage damage caused to weed species SETFA
Procedure: as §1, with “8 days” for “one day”
as §3

Structure (SMILES)	pest or weed control at 1000 g/ha [%]
COC(=O)c1nc(-c2csc3ccc(C)cc23)nc(N)c1Cl [Compound 2-57, 4-amino-5-chloro-6-methoxycarbonyl-2-(5-methylbenz-[b]thiophen-3-yl)-pyrimidine]	0
COC(=O)c1nc(-c2cccnc2)nc(N)c1Cl [Compound 2-153, 4-Amino-5-chloro-6-methoxycarbonyl-2-pyridin-3-ylpyrimidine]	0
COC(=O)c1nc(-c2cccnc2OC)nc(N)c1Cl [Compound 2-154, 4-Amino-5-chloro-6-methoxycarbonyl-2-(2-methoxypyridin-3-yl)-pyrimidine]	0
COC(=O)c1nc(-c2ccc(OC)nc2)nc(N)c1Cl [Compound 2-155, 4-Amino-5-chloro-6-methoxycarbonyl-2-(2-methoxypyridin-5-yl)-pyrimidine]	80
COC(=O)c1nc(-c2ccc(Cl)nc2)nc(N)c1Cl [Compound 2-156, 4-Amino-5-chloro-2-(2-chloropyridin-5-yl)-6-methoxycarbonyl pyrimidine]	40

test system: Solanum nigrum (SOLNI); assay: as above; assay type: in vivo; conditions: 312 h, 1000 g/ha, after 13 days, 100=total damage, 0=no damage, read-out: Percentage damage caused to weed species SOLNI
Procedure: as §1, with “8 days” for “one day”
as §3

Structure (SMILES)	pest or weed control at 1000 g/ha [%]
COC(=O)c1nc(-c2csc3ccc(C)cc23)nc(N)c1Cl [Compound 2-57, 4-amino-5-chloro-6-methoxycarbonyl-2-(5-methylbenz-[b]thiophen-3-yl)-pyrimidine]	0
COC(=O)c1nc(-c2cccnc2)nc(N)c1Cl [Compound 2-153, 4-Amino-5-chloro-6-methoxycarbonyl-2-pyridin-3-ylpyrimidine]	0
COC(=O)c1nc(-c2cccnc2OC)nc(N)c1Cl [Compound 2-154, 4-Amino-5-chloro-6-methoxycarbonyl-2-(2-methoxypyridin-3-yl)-pyrimidine]	30
COC(=O)c1nc(-c2ccc(OC)nc2)nc(N)c1Cl [Compound 2-155, 4-Amino-5-chloro-6-methoxycarbonyl-2-(2-methoxypyridin-5-yl)-pyrimidine]	70
COC(=O)c1nc(-c2ccc(Cl)nc2)nc(N)c1Cl [Compound 2-156, 4-Amino-5-chloro-2-(2-chloropyridin-5-yl)-6-methoxycarbonyl pyrimidine]	80
